The source of these data is PubChem BioAssay AID504335 (Southern Research Specialized Biocontainment Screening …, 2011).

Activity calls are given as the source filed them. The rule behind the calls is not given here.

Test system in one experiment: not listed separately
Kind of experiment: dose response, cytotoxicity control for M. tuberculosis inhibitor project, purified and synthesized compounds (AID 504335). The following applies: mammalian cell cytotoxicity, viability; at 100 µM (top of the series).
The viability is the share of living cells, or the viability signal relative to a control. `O=C(/C=C\c1cccs1)N1CCN(Cc2ccc3c(c2)OCO3)CC1`: the viability is 87.7% (inactive). For the compound `Cc1nc(SCC(=O)NC2CCCCC2)[nH]c(=O)c1C`, the viability is 88.8% (inactive). As for `CCOC(=O)COc1ccc(/C=C2\NC(=S)N(CC)C2=O)cc1`, the viability was 94.5% (inactive). Same read-out and setting: for `COC(=O)C(C)Oc1ccc(-c2nccc(-c3ccccn3)n2)cc1` (centres undefined) the value was 95.7% (inactive); for `COc1cc(NC(=O)C/C(C)=N/NC(=O)c2ccccn2)c(OC)cc1Cl`, 92.4% (inactive). Consider `CCc1ccc(/C=C2/C(=O)N(C)C(=S)N2CC(=O)OC)s1`, for which the viability was 92% (inactive).

As for `O=C(CSc1nc2ccccc2c(=O)[nH]1)NCc1ccc(Cl)cc1`, the viability is 83% (inactive). Take `O=C(CSc1nc2ccccc2c(=O)[nH]1)NC1CCCCC1`: the viability is 81.8% (inactive).

On to `CCOC(=O)COn1c2c(c3c4no[n+]([O-])c4ccc31)CCCC2`, for which the viability was 87.8% (inactive). The same measure, in the same setting: in the case of `COC(=O)CCc1nc2c(C#N)c(-c3ccc(Cl)cc3)ccn2n1` it was 99.2% (inactive); in that of `Cc1ccc(NC(=O)C2C3/C=C\CCCCC32)cc1C` (centres undefined), 87.6% (inactive).

Regarding `COC(=O)C1CC(=O)N(c2ccc(OCc3ccccc3Cl)cc2)C1` (centres undefined), the viability was 90.6% (inactive).

The next experiment deals with mammalian cell cytotoxicity, viability. The description is as above.
Conditions: not given
For orientation: CC50 means the concentration at which the toxic effect on the cells reaches its halfway point. In the case of `CC(=NCc1ccc2c(c1)OCO2)C1=C(O)c2ccccc2C1=O`, the CC50 is > 100 µM (inactive).

With `CNc1nc(SCc2ccccc2Cl)nc2c1CCCC2`, the 50% cytotoxic concentration (CC50) is 36 µM. Same read-out and setting: in the case of `Oc1ccccc1/C=N/Nc1ccnc(SCc2ccccc2)n1` it was 93.8 µM; in that of `Cc1cccc(/C=C/C(=O)c2ccc([N+](=O)[O-])o2)c1`, 20.2 µM.

With `Cc1ccc2ccc3ccc(C)nc3c2n1`, the CC50 was 58.5 µM.

Take `CCOC(=O)c1ccc(NC(=O)Cn2ncc(Cl)c(Cl)c2=O)cc1`: the CC50 is 7.71 µM. The same measure, in the same setting: for `Cc1ccc2c(c1)c(C1=c3ccccc3=NC1=O)c(O)n2C` the value was 10.1 µM; for `S=c1nc[nH]c2nc[nH]c12`, 38.7 µM; for `CC(C)NC(=O)c1sc(=S)n2c1[nH]c(=O)c1ccc(C(=O)NCCc3ccc(Cl)cc3)cc12`, 99.9 µM. The same measure, in the same setting: in the case of `CCC(C)Nc1ccc(NC(C)CC)cc1` (centres undefined) it was 14.3 µM; in that of `COC(=O)c1cc(=O)n(-c2ccc(F)cc2)c(=Nc2ccc(F)cc2)s1`, 25.7 µM; in that of `O=C(NCC(c1cccs1)N1CCOCC1)c1cc([N+](=O)[O-])cc([N+](=O)[O-])c1` (centres undefined), 96.7 µM.
